# Laboratory results as given in patent US20230159484A1, “FLUORESCENT DYES HAVING HIGH STOKES SHIFT, ON THE BASIS OF BRIDGED BENZOPYRYLIUM SALTS” (DYOMICS GmbH, priority 2020, published 2023).
# Key:
# Format in all cases: physicochemical
# [1] = UV-Vis absorption (absorption maximum, extinction coefficient)
# Procedure: (§1) Depending on the basic structure and substitution, the absorption maxima lie in the entire range of visible light, with a focus at 500-530 nm. The compounds show a high Stokes shift in the range of 80 nm. The absorption is measured, for example, at 25° C. in aqueous or ethanolic solutions with an extinction of 1.0 using a Specord 205 from Analytik Jena, wherein the aqueous solutions are preferably phosphate-buffered salt solutions (PBS buffer; approx. 100 mM sodium chloride and 100 mM total phosphate) and have a pH of 7.5. For example, the emission is measured at 25° C. in dilute aqueous or ethanolic solutions with an extinction of 0.1 using a FP-6600 spectrofluorometer from Jasco, wherein the dilute aqueous solutions are preferably phosphate-buffered salt solutions (PBS buffer; about 100 mM sodium chloride and 100 mM total phosphate) and have a pH of 7.5.
# [2] = Fluorescence quantum yield
# Procedure: Preferably, the fluorescence quantum yield of a compound according to the invention is 0.1 to 0.95, more preferably 0.5 to 0.9. Fluorescence quantum yields are preferably determined at 25° C. in dilute aqueous or ethanolic solutions with an extinction of 0.1 using a Hamamatsu Absolute Photoluminescence Quantum Yield Measurement System C-9920, wherein the dilute aqueous solutions are preferably phosphate-buffered salt solutions (PBS buffer; about 100 mM sodium chloride and 100 mM total phosphate) and have a pH of 7.5. The compounds thus complement the already commercially available dyes with high Stokes Shift or represent better fluorescent alternatives.
# [3] = Fluorescence emission (emission maximum)
# Procedure: as §1
# [4] = Fluorescence emission (emission maximum); remark: listed apart in the source
ε ([1]; UV-Vis in PBS),λmax ([1]; UV-Vis in PBS) [nm],ε ([1]; UV-Vis in ethanol),λmax ([1]; UV-Vis in ethanol) [nm],QY ([2]; in PBS),QY ([2]; in ethanol),λem ([3]; in PBS) [nm],λem ([3]; in ethanol) [nm],λmax ([1]; UV-Vis in buffer pH 9) [nm],λem ([4]; in buffer pH 9) [nm],ε ([1]; UV-Vis in buffer pH 5) [L/mol/cm],λmax ([1]; UV-Vis in buffer pH 5) [nm],λem ([4]; in buffer pH 5) [nm],Compound
"45,000 l/mol*cm",505,"49,800 l/mol*cm",512,0.72,0.87,572,570,,,,,,"CC1(C)CC(NCCCS(=O)(=O)[O-])=Cc2[o+]c3cc(N(CCCCCC(=O)O)CCCS(=O)(=O)[O-])ccc3cc21.[Na+] [Compound 5, 3-[[6-[5-carboxypentyl(3-sulfonatopropyl)amino]-1,1-dimethyl-2H-xanthene-10-ium-3-yl]amino]propane-1-sulfonate Sodium Salt]"
,409,,,,,485,,462,536,,,,"CC1(C)CC(=O)C(S(=O)(=O)[O-])=C2Oc3cc(O)ccc3C=C21.[Na+] [Compound 39, 6-hydroxy-1,1-dimethyl-3-oxo-2H-xanthene-4-sulfonate Sodium Salt]"
"39,000 l/mol*cm",523,"41,000 l/mol*cm",531,"0,24",0.47,600,601,,,,,,"CN(C1=Cc2[o+]c3cc(N(CCCCCC(=O)O)CCCS(=O)(=O)[O-])ccc3cc2C(C)(C)C1)c1ccccc1 [Compound 9, 3-[5-carboxypentyl-[8,8-dimethyl-6-(N-methylanilino)-7H-xanthene-10-ium-3-yl]amino]propane-1-sulfonate]"
"28,000 l/mol*cm",479,"31,000 l/mol*cm",463,0.78,0.91,557,544,,,,,,"CC1(C)CC(=O)C(S(=O)(=O)[O-])=C2Oc3cc(N(CCCCCC(=O)O)CCCS(=O)(=O)[O-])ccc3C=C21.[Na+].[Na+] [Compound 38, 6-[5-carboxypentyl(3-sulfonatopropyl)amino]-1,1-dimethyl-3-oxo-2H-xanthene-4-sulfonate di-sodium SALT]"
"30,100 l/mol*cm",482,"25,000 l/mol*cm",446,0.66,0.90,565,542,,,,,,"CCN(CCCCCC(=O)O)c1ccc2c(c1)OC1=C(S(=O)(=O)[O-])C(=O)CC(C)(C)C1=C2.[Na+] [Compound 36, 6-[5-carboxypentyl(ethyl)amino]-1,1-dimethyl-3-oxo-2H-xanthene-4-sulfonate Sodium Salt]"
"45,000 l/mol*cm",532,"50,000 l/mol*cm",533,0.26,0.51,619,610,,,,,,"CCN(CCCCCC(=O)O)c1ccc2cc3c([o+]c2c1)C=C(N(C)c1ccc(S(=O)(=O)[O-])cc1)CC3(C)C [Compound 12, 4-[[6-[5-carboxypentyl(ethyl)amino]-1,1-dimethyl-2H-xanthene-10-ium-3-yl]-methyl-amino]benzenesulfonate]"
"39,200 l/mol*cm",505,"32,500 l/mol*cm",510,0.58,0.82,570,575,,,,,,"CCN(CC)c1ccc2cc3c([o+]c2c1)C=C(NCCCCCC(=O)O)CC3(C)C.[Cl-] [Compound 3, 6-[[6-(diethylamino)-1,1-dimethyl-2H-xanthene-10-ium-3-yl]amino]hexanoic Acid Chloride Salt]"
"13,000 l/mol*cm",472,,,,,573,,,,13300,523,600,"CCN(CCCCCC(=O)O)c1ccc2c(c1)OC1=C(c3ccncc3)C(=O)CC(C)(C)C1=C2 [Compound 44, 6-[[8,8-dimethyl-6-oxo-5-(4-pyridyl)-7H-xanthene-3-yl]-ethyl-amino]hexanoic Acid]"
"40,100 l/mol*cm",545,"45,300 l/mol*cm",542,0.11,0.61,625,616,,,,,,"CCN(CCCCCC(=O)O)c1ccc2cc3c([o+]c2c1)C(S(=O)(=O)[O-])=C(Nc1ccc(S(=O)(=O)[O-])cc1)CC3(C)C.[Na+] [Compound 14, 6-[5-carboxypentyl(ethyl)amino]-1,1-dimethyl-3-(4-sulfonatoanilino)-2H-xanthene-10-ium-4-sulfonate Sodium Salt]"
"45,400 l/mol*cm",527,"55,000 l/mol*cm",542,0.58,0.88,600,600,,,,,,"CC1=CC(C)(C)N(CCCS(=O)(=O)[O-])c2cc3[o+]c4c(cc3cc21)C(C)(C)CC(N(C)CCCC(=O)O)=C4 [Compound 23, 3-[9-[3-carboxypropyl(methyl)amino]-2,2,4,7,7-pentamethyl-8H-chromeno[3,2-g]quinolin-11-ium-1-yl]propane-1-sulfonate]"
"44,000 l/mol*cm",527,"48,000 l/mol*cm",533,0.35,0.57,612,609,,,,,,"CN(C1=Cc2[o+]c3cc(N(CCCCCC(=O)O)CCCS(=O)(=O)[O-])ccc3cc2C(C)(C)C1)c1ccc(S(=O)(=O)[O-])cc1.[Na+] [Compound 10, 4-[[6-[5-carboxypentyl(3-sulfonatopropyl)amino]-1,1-dimethyl-2H-xanthene-10-ium-3-yl]-methyl-amino]benzenesulfonate sodium Salt]"
15000 L/mol/cm,470,,,,,570,,,,15400,524,594,"CC1(C)CC(=O)C(c2ccncc2)=C2Oc3cc(N(CCCCCC(=O)O)CCCS(=O)(=O)[O-])ccc3C=C21.[Na+] [Compound 45, 3-[5-carboxypentyl-[8,8-dimethyl-6-oxo-5-(4-pyridyl)-7H-xanthene-3-yl]amino]propane-1-sulfonate Sodium Salt]"
"38,500 l/mol*cm",509,"41,600 l/mol*cm",511,0.58,0.84,578,571,,,,,,"CCN(CCCCCC(=O)O)c1ccc2cc3c([o+]c2c1)C=C(NCCCS(=O)(=O)[O-])CC3(C)C [Compound 8, 3-[[6-[5-Carboxypentyl(ethyl)amino]-1,1-dimethyl-2H-xanthene-10-ium-3-yl]amino]propane-1-sulfonate]"
"39,000 l/mol*cm",526,"44,000 l/mol*cm",531,0.27,0.42,606,601,,,,,,"CCN(CCCCCC(=O)O)c1ccc2cc3c([o+]c2c1)C=C(N(C)c1ccccc1)CC3(C)C.[Cl-] [Compound 11, 6-[[8,8-dimethyl-6-(N-methylanilino)-7H-xanthene-10-ium-3-yl]-ethyl-amino]hexanoic Acid Chloride Salt]"
37000 L/mol/cm,670,"80,300 l/mol*cm",679,,,710,713,,,,,,"CCN(CC)c1ccc2cc3c([o+]c2c1)C=C1Oc2cc(N(CC)CCCCCC(=O)O)ccc2C=C1C3(C)C.[Cl-] [Compound 47, 6-[[9-(diethylamino)-13,13-dimethyl-chromeno[3,2-b]xanthene-7-ium-3-yl]-ethyl-amino]hexanoic Acid Chloride Salt]"
